The results in this text go back to patent publication US12263169B2, “Methods of treating neuroepithelial tumors using selective glucocorticoid receptor modulators” (Corcept Therapeutics, Inc., priority 2017, dated 2025).

In one experiment the test system is U87. The experiment can be described thus: Cell growth inhibition (Alamar Blue cell viability assay). The format is cell-based. Conditions: Homo sapiens, U-87 MG, U87 standard GBM line, 72 hours treatment, triplicate. The protocol:
(§1) The effect of GRMs on the growth in culture of human and mouse glioblastoma cells was examined. The GRMs mifepristone and CORT125134 inhibited growth in culture of each of five different glioblastoma cell lines. The highest drug concentration tested was 50 μM. The cell lines used were the Standard Serum Human glioblastoma (GBM) Cell lines: U251, GL261, U87, and the patient-derived neurosphere cell lines GBM8 and GBM4. Cells were plated at cell numbers of 2000 cells/well, in a 96-well format; the experiments were done in triplicate. Cell growth inhibition by the applied drugs was assayed. Cell growth inhibition was quantified by the Alamar Blue method using a commercial assay kit. Cell growth inhibition was determined (“read out”) after 72 hours of treatment. […] Cell Cultures: The human glioblastoma cell lines (obtained from the American Type Culture Collection (ATCC), Manassas VA, USA) tested were U251 and U87 (human), and GL261 (mouse). These were grown as an adherent monolayer cultured in DMEM supplemented with 10% fetal bovine serum (FBS) (Seradigm, a subsidiary of VWR, Radnor PA, USA) and 1% glutamine pen-strep (Omega Scientific, Tarzana CA, USA). GBM8 (passage 12) and GBM4 are patient derived glioma stem cell lines obtained and cultured as neurospheres (spheroids) as described by Galli et al., “Isolation and characterization of tumorigenic, stem-like neural precursors from human glioblastoma” Cancer Res 2004, 64 (19), 7011-21 and Lee et al., “Tumor stem cells derived from glioblastomas cultured in bFGF and EGF more closely mirror the phenotype and genotype of primary tumors than do serum-cultured cell lines” Cancer Cell 2006, 9 (5), 391-403. Initial GBM surgical samples were dissociated in stem cell isolation medium containing human recombinant EGF ([…]), human bFGF ([…]) and heparin (2 μg/ml), washed, filtered through a 30 μm mesh and plated onto ultra-low adherence flasks at a concentration of 5×10^5 to 1.5×10^6 viable cells/ml. Sphere cultures were passaged by dissociation, washing and resuspension in neural stem cell culture medium (NeuroCult™ NS-A Proliferation kit #05751, Stemcell Technologies, Vancouver, BC, CA), according to the manufacturer's instructions. Cell Viability Assay: Cells were seeded into 96-well plates at a density of 2000 cells per well. Compounds were added 24 hours after the seeding of cells. All compounds were diluted in 1% FBS/DMEM. The control was treated with media alone. After 3 days incubation (37° C./5% CO2) Alamar Blue (#BUF012B, AbDSerotec, Kidlington, UK) was added according to the manufacturer's protocol, directly to the medium and placed back in the tissue culture incubator (37° C. 5% CO2). After 3-18 hours fluorescent signal was read at 544ex/590em (SpectraMax i3x plate reader, Molecular Devices, San Jose CA, USA) to determine the number of viable cells. The IC50 values were calculated using commercial software (Prism 5 Software, GraphPad, La Jolla CA, USA). After 24 hours post incubation, cells were treated with drugs at various concentrations for 72 hours. Cell viability was measured after 72 hours by Alamar Blue and results reported as triplicate experiment. The following Table presents the IC50 values as determined in these experiments.
(Resazurin is reduced to fluorescent resorufin, in cell work by metabolically active cells.)

The next experiment relates to GL261. Described as above. The format is cell-based. Conditions: Mus musculus, GL261 standard GBM line, 72 hours treatment, triplicate. The protocol:
as §1

A further experiment relates to GBM4. The experiment is described as above. It counts as cell-based. Conditions: Homo sapiens, GBM4 patient-derived neurosphere line, 72 hours treatment, triplicate. The protocol: as §1
The next experiment concerns U251. Described as above. Conditions: Homo sapiens, U-251, U251 standard GBM line, 72 hours treatment, triplicate. The format is cell-based. The protocol: as §1
Another experiment deals with GBM8. The experiment is described as above. It counts as cell-based. Conditions: Homo sapiens, GBM8 patient-derived neurosphere line, 72 hours treatment, triplicate. The protocol: as §1
A further experiment has as its system meningioma. Briefly: Treating a meningioma patient with SGRM, tumor load monitored by enhanced MRI. Conditions: 200 mg once a day for eight weeks. The format is in vivo, human. The protocol:
A patient complains of tinnitus and right-sided hearing loss for 6 months. […] They are treated with CORT125134 at a dose of 200 mg once a day for eight weeks. Their tumor load is monitored using enhanced MRI before, during and after the treatment.
A patient complains of tinnitus and right-sided hearing loss for 6 months. […] They are treated with CORT125281 at a dose of 200 mg once a day for eight weeks. Their tumor load is monitored using enhanced MRI before, during and after the treatment.

Experiment [1] relates to glioblastoma cell lines U251, GL261, U87, GBM8 and GBM4. Briefly: Cell growth inhibition, summary over five glioblastoma cell lines. Conditions: range over five glioblastoma cell lines, 72 hours treatment, Alamar Blue; read-out: half-maximal inhibition concentration (IC50) values, range over the cell lines. It counts as cell-based, human and mouse. The protocol:
The effect of GRMs on the growth in culture of human and mouse glioblastoma cells was examined. The GRMs mifepristone and CORT125134 inhibited growth in culture of each of five different glioblastoma cell lines. The highest drug concentration tested was 50 μM. The cell lines used were the Standard Serum Human glioblastoma (GBM) Cell lines: U251, GL261, U87, and the patient-derived neurosphere cell lines GBM8 and GBM4. Cells were plated at cell numbers of 2000 cells/well, in a 96-well format; the experiments were done in triplicate. Cell growth inhibition by the applied drugs was assayed. Cell growth inhibition was quantified by the Alamar Blue method using a commercial assay kit. Cell growth inhibition was determined (“read out”) after 72 hours of treatment. […] Cell Cultures: The human glioblastoma cell lines (obtained from the American Type Culture Collection (ATCC), Manassas VA, USA) tested were U251 and U87 (human), and GL261 (mouse). […] After 3-18 hours fluorescent signal was read at 544ex/590em (SpectraMax i3x plate reader, Molecular Devices, San Jose CA, USA) to determine the number of viable cells. The IC50 values were calculated using commercial software (Prism 5 Software, GraphPad, La Jolla CA, USA). […] Cell viability was measured after 72 hours by Alamar Blue and results reported as triplicate experiment. The following Table presents the IC50 values as determined in these experiments.

pIC50: −log10 of the molar value.

By IC50 is commonly meant the concentration that inhibits the measured activity by half. Lower therefore signals higher potency. On to `Cn1cc(S(=O)(=O)N2CCC3=Cc4c(cnn4-c4ccc(F)cc4)C[C@]3(C(=O)c3cc(C(F)(F)F)ccn3)C2)cn1` [CORT125134, (R)-(1-(4-fluorophenyl)-6-((1-methyl-1H-pyrazol-4-yl)sulfonyl)-4,4a,5,6,7,8-hexahydro-1H-pyrazolo[3,4-g]isoquinolin-4a-yl)(4-(trifluoromethyl)pyridin-2-yl)methanone], for which the IC50 with U87 was 5.42 µM; in the experiment with GL261 it was 5.86 µM; in the experiment with GBM4 it was 20.7 µM; in the experiment on U251, 12.5 µM; in the experiment with GBM8, 29.1 µM. In the experiment on meningioma, the “reduction of tumor size as compared to baseline at the end of the treatment period” value is “more than 50%”. The pIC50 in experiment [1] was 4.54 to 5.30.
As for `Cn1ncc(S(=O)(=O)N2CC[C@H]3Cc4c(cnn4-c4ccc(F)cc4)C[C@]3(C(=O)c3cc(C(F)(F)F)ccn3)C2)n1` [CORT125281, ((4aR,8aS)-1-(4-fluorophenyl)-6-((2-methyl-2H-1,2,3-triazol-4-yl)sulfonyl)-4,4a,5,6,7,8,8a,9-octahydro-1H-pyrazolo[3,4-g]isoquinolin-4a-yl)(4-(trifluoromethyl)pyridin-2-yl)methanone], the “reduction of tumor size as compared to baseline at the end of the treatment period” value in the experiment with meningioma is recorded as “more than 50%”.
Turning to `CC#C[C@]1(O)CC[C@H]2[C@@H]3CCC4=CC(=O)CCC4=C3[C@@H](c3ccc(N(C)C)cc3)C[C@@]21C` [Mifepristone, 17-β-hydrox-11-β-(4-dimethyl-aminophenyl)17-α-(1-propynyl)estra-4,9-dien-3-one, reference compound], the IC50 was 18.4 µM in the experiment on U87; 15.7 µM with GL261; 24.1 µM in the experiment with GBM4; 18.4 µM in the experiment on U251; 24 µM in the experiment with GBM8. Besides, the pIC50 in experiment [1] was 4.62 to 4.80.
